Measured values taken from US20250304582A1, “Bicyclic Ureas As Kinase Inhibitors” (Incyte Corporation, priority 2024, published 2025).

Key:
[1] = molecular target: T1, catalytic domain (JH1, amino acids 826-1132) of human JAK2 (Homo sapiens, UniProt O60674); assay: JAK2 LanthaScreen JH1 Binding Assay; settings: 50 nM fluorescent JAK2-JH1 tracer, 2 hours at 25° C.; read-out: JH1 BIND (EX. A)
T1 construct: catalytic domain (JH1, amino acids 826-1132) of human JAK2; FLAG (N); purchased Carna Biosciences 08-445-20N; host or cells: baculovirus expression system
T1 sequence (O60674 826-1132): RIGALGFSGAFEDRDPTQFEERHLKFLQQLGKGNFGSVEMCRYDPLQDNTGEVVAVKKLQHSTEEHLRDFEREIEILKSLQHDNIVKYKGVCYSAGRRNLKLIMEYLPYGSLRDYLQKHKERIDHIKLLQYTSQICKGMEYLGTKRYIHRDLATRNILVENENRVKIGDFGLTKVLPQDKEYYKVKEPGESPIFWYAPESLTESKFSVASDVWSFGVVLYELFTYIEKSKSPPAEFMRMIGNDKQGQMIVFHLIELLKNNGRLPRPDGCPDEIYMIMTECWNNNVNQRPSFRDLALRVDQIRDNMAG
Experimental: Example A. JAK2 LanthaScreen JH1 Binding Assay
JAK2 JH1 binding assay utilizes catalytic domain (JH1, amino acids 826-1132) of human JAK2 expressed as N-terminal FLAG-tagged, biotinylated protein in a baculovirus expression system (Carna Biosciences, Product #08-445-20N). The assay was conducted in black 384-well polystyrene plates in a final reaction volume of 20 μL. JAK2 JH1 (1.5 nM) was incubated with compounds (100 nL serially diluted in DMSO) in the presence of 50 nM fluorescent JAK2-JH1 tracer and 0.5 nM Streptavidin-Tb cryptate (Cisbio Part #610SATLB) in assay buffer (50 mM Tris, pH=7.5, 10 mM MgCl2, 0.01% Brij-35, 0.1% BSA, 1 mM EGTA, 5% Glycerol and 5 mM DTT). Non-specific binding was accessed in the presence of 2 mM ATP. After incubation for 2 hours at 25° C., LanthaScreen signals were read on a PHERAstar FS plate reader (BMG LABTECH). Data was analyzed with IDBS Xlfit and GraphPad Prism 5.0 software using a four parameter dose response curve to determine IC50 for each compound.

[2] = molecular target: T2, pseudo-kinase domain (JH2, amino-acids 536-812) of human Wild Type JAK2 (Homo sapiens, UniProt O60674, F794H/W659A/W777A); assay: JAK2 LanthaScreen JH2-WT Binding Assay; settings: 50 nM Fluorescent JAK2-JH2 Tracer, 1 hour at 25° C.; read-out: JH2 BIND WT (EX. B)
T2 construct: JH2, amino-acids 536-812 with 3 surface mutations W659A, W777A, F794H; His (C); purchased BPS Bioscience 79463; host or cells: baculovirus expression system
T2 sequence (O60674 536-812 W659A/W777A/F794H): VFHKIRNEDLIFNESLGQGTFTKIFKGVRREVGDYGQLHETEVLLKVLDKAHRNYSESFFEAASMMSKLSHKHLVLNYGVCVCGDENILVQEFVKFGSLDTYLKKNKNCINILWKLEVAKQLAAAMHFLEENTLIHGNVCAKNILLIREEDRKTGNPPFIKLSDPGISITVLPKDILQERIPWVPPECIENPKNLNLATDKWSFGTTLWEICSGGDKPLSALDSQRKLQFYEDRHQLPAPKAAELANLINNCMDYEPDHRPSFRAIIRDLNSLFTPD
Experimental: Example B. JAK2 LanthaScreen JH2-WT Binding Assay
(§1) JAK2 JH2-WT binding assay utilizes pseudo-kinase domain (JH2, amino-acids 536-812 with 3 surface mutations W659A, W777A, F794H) of human Wild Type JAK2 expressed as C-terminal His-Avi-tagged, biotinylated protein in a baculovirus expression system (BPS Bioscience, Catalog #79463). The assay was conducted in black 384-well polystyrene plates in a final reaction volume of 20 μL. JAK2 JH2-WT (0.145 nM) was incubated with compounds (100 nL serially diluted in DMSO) in the presence of 50 nM Fluorescent JAK2-JH2 Tracer (MedChem Express Catalog #HY-102055) and 0.25 nM Streptavidin-Tb cryptate (Cisbio Part #610SATLB) in assay buffer (50 mM Tris, pH=7.5, 10 mM MgCl2, 0.01% Brij-35, 0.1% BSA, 1 mM EGTA, 5% Glycerol and 5 mM DTT). Non-specific binding was accessed in the presence of 2 mM ATP. After incubation for 1 hour at 25° C., LanthaScreen signals were read on a PHERAstar FS plate reader (BMG LABTECH). Data was analyzed with IDBS Xlfit and GraphPad Prism 5.0 software using a four parameter dose response curve to determine IC50 for each compound.

[3] = molecular target: T3, pseudo-kinase domain (JH2, amino-acids 536-812) of human V617F mutant JAK2 (Homo sapiens, UniProt O60674, F794H/V617F/W659A/W777A); assay: JAK2 LanthaScreen JH2-V617F Binding Assay; settings: 50 nM Fluorescent JAK2-JH2 Tracer, 1 hour at 25° C.; read-out: JH2 BIND V617F (Ex. C)
T3 construct: JH2, amino-acids 536-812 with 3 surface mutations W659A, W777A, F794H; His (C); purchased BPS Bioscience 79498; host or cells: baculovirus expression system
T3 sequence (O60674 536-812 V617F/W659A/W777A/F794H): as the sequence (O60674 536-812 W659A/W777A/F794H) above, with V82F counted along it
Experimental: Example C. JAK2 LanthaScreen JH2-V617F Binding Assay
as §1, with “JH2-V617F” for “JH2-WT”, “V617F mutant” for “Wild Type”, “#79498).” for “#79463).”, “JH2-V617F (0.26” for “JH2-WT (0.145”

[4] = molecular target: T4, catalytic domain (JH1, amino acids 808-1132) of human JAK2 (Homo sapiens, UniProt O60674); assay: JAK2 HTRF Enzyme Activity Assay; type: biochemical; settings: ATP (30 μM or 1 mM; not stated which for the table), 60 minutes at 25° C.; read-out: JAK2 HTRF (Ex. D)
T4 construct: catalytic domain (JH1, amino acids 808-1132) of human JAK2; His (N); purchased BPS Bioscience 40450; host or cells: baculovirus expression system
T4 sequence (O60674 808-1132): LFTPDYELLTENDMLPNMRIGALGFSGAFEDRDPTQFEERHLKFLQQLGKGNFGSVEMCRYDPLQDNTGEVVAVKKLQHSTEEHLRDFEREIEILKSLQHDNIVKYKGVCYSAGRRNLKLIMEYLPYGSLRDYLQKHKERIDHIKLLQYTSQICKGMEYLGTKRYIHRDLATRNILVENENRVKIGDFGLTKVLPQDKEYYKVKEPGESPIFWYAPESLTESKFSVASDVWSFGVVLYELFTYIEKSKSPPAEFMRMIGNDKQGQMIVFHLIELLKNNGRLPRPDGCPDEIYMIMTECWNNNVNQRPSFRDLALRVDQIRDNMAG
Experimental: Example D. JAK2 HTRF Enzyme Activity Assay
JAK2 enzyme activity assays utilize catalytic domain (JH1, amino acids 808-1132) of human JAK2 expressed as N-terminal His-tagged protein in a baculovirus expression system (BPS Bioscience, Catalog #40450). The assays was conducted in black 384-well polystyrene plates in a final reaction volume of 20 μL. JAK2 (0.015 nM) was incubated with compounds (100 nL serially diluted in DMSO) in the presence of ATP (30 μM or 1 mM) and 500 nM Biotin-labeled EQEDEPEGDYFEWLE (SEQ ID NO.: 1) peptide (BioSource International, custom synthesis) in assay buffer (50 mM Tris, pH=7.5, 10 mM MgCl2, 0.01% Brij-35, 0.1% BSA, 1 mM EGTA, 5% Glycerol and 5 mM DTT) for 60 minutes at 25° C. The reactions were stopped by the addition of 10 μL of detection buffer (50 mM Tris, pH 7.8, 0.5 mg/mL BSA, 150 mM NaCl), supplemented with EDTA, LANCE Eu-W1024 anti-phosphotyrosine (PY20), (PerkinElmer, Catalog #AD0067) and Streptavidin SureLight APC (PerkinElmer Catalog #CR130-100), for a final concentration of 15 mM, 1.5 nM and 75 nM, respectively. HTRF signals were read after 30 minutes incubation at room temperature on a PHERAstar FS plate reader (BMG LABTECH). Data was analyzed with TDBS Xlfit and GraphPad Prism 5.0 software using a four parameter dose response curve to determine IC50 for each compound.

SMILES | IC50 [1] [µM] | IC50 [2] [µM] | IC50 [3] [µM] | IC50 [4] [µM]
[2H]C([2H])([2H])n1c(=O)n([C@@H]2CC[C@@H](NC(=O)OC)C2)c2cc(Nc3cc(C(C)(C)OC)c4cccc(C(F)(F)F)c4n3)ncc21 [Example 17, Methyl ((1R,3R)-3-(6-((4-(2-methoxypropan-2-yl)-8-(trifluoromethyl)quinolin-2-yl)amino)-3-(methyl-d3)-2-oxo-2,3-dihydro-1H-imidazo[4,5-c]pyridin-1-yl)cyclopentyl)carbamate] | > 1 | ≤ 0.01 | ≤ 0.01 | > 1
[2H]C([2H])([2H])n1c(=O)n([C@@H]2CC[C@@H](NC(=O)OC)C2)c2cc(Nc3cc(CC#N)c4cccc(C(F)(F)F)c4n3)ncc21 [Example 18, Methyl ((1R,3R)-3-(6-((4-(cyanomethyl)-8-(trifluoromethyl)quinolin-2-yl)amino)-3-(methyl-d3)-2-oxo-2,3-dihydro-1H-imidazo[4,5-c]pyridin-1-yl)cyclopentyl)carbamate] | 0.5 to 1 | ≤ 0.01 | ≤ 0.01 | 0.5 to 1
[2H]C([2H])([2H])n1c(=O)n([C@@H]2CC[C@@H](NC(=O)OC)C2)c2cc(Nc3cc(C(C)(C)C#N)c4cccc(C(F)(F)F)c4n3)ncc21 [Example 19, Methyl ((1R,3R)-3-(6-((4-(2-cyanopropan-2-yl)-8-(trifluoromethyl)quinolin-2-yl)amino)-3-(methyl-d3)-2-oxo-2,3-dihydro-1H-imidazo[4,5-c]pyridin-1-yl)cyclopentyl)carbamate] | > 1 | ≤ 0.01 | ≤ 0.01 | > 1
[2H]C([2H])([2H])n1c(=O)n([C@@H]2CC[C@@H](NC(=O)OC)C2)c2cc(Nc3cc(C(C)(C)O)c4cc(Cl)cc(C(F)(F)F)c4n3)ncc21 [Example 20, Methyl ((1R,3R)-3-(6-((6-chloro-4-(2-hydroxypropan-2-yl)-8-(trifluoromethyl)quinolin-2-yl)amino)-3-(methyl-d3)-2-oxo-2,3-dihydro-1H-imidazo[4,5-c]pyridin-1-yl)cyclopentyl)carbamate] | > 1 | ≤ 0.01 | ≤ 0.01 | > 1
COC(=O)N[C@@H]1CC[C@@H](n2c(=O)n(C)c3cnc(Nc4cc(Cl)c5cccc(C(F)(F)F)c5n4)cc32)C1 [Example 21, Methyl ((1R,3R)-3-(6-((4-chloro-8-(trifluoromethyl)quinolin-2-yl)amino)-3-methyl-2-oxo-2,3-dihydro-1H-imidazo[4,5-c]pyridin-1-yl)cyclopentyl)carbamate] | > 1 | ≤ 0.01 | ≤ 0.01 | > 1
[2H]C([2H])([2H])n1c(=O)n([C@@H]2CC[C@@H](NC(=O)OC)C2)c2cc(Nc3cc(NC(=O)COC)c4cccc(C(F)(F)F)c4n3)ncc21 [Example 22, Methyl ((1R,3R)-3-(6-((4-(2-methoxyacetamido)-8-(trifluoromethyl)quinolin-2-yl)amino)-3-(methyl-d3)-2-oxo-2,3-dihydro-1H-imidazo[4,5-c]pyridin-1-yl)cyclopentyl)carbamate] | > 1 | ≤ 0.01 | ≤ 0.01 | > 1
[2H]C([2H])([2H])n1c(=O)n([C@@H]2CC[C@@H](NC(=O)OC)C2)c2cc(Nc3cc(NS(C)(=O)=O)c4cccc(C(F)(F)F)c4n3)ncc21 [Example 23, Methyl ((1R,3R)-3-(3-(methyl-d3)-6-((4-(methylsulfonamido)-8-(trifluoromethyl)quinolin-2-yl)amino)-2-oxo-2,3-dihydro-1H-imidazo[4,5-c]pyridin-1-yl)cyclopentyl)carbamate] | > 1 | 0.01 to 0.1 | 0.01 to 0.1 | > 1
COC(=O)N[C@@H]1CC[C@@H](n2c(=O)n(C)c3cnc(Nc4ccc5cccc(Br)c5n4)cc32)C1 [Example 24, Methyl ((1R,3R)-3-(6-((8-bromoquinolin-2-yl)amino)-3-methyl-2-oxo-2,3-dihydro-1H-imidazo[4,5-c]pyridin-1-yl)cyclopentyl)carbamate] | > 1 | ≤ 0.01 | ≤ 0.01 | > 1
COC(=O)N[C@@H]1CC[C@@H](n2c(=O)n(C)c3cnc(Nc4ccc5cc(Cl)cc(C(F)(F)F)c5n4)cc32)C1 [Example 25, Methyl ((1R,3R)-3-(6-((6-chloro-8-(trifluoromethyl)quinolin-2-yl)amino)-3-methyl-2-oxo-2,3-dihydro-1H-imidazo[4,5-c]pyridin-1-yl)cyclopentyl)carbamate] | > 1 | ≤ 0.01 | ≤ 0.01 | > 1
[2H]C([2H])([2H])n1c(=O)n([C@@H]2CC[C@@H](NC(=O)OC)C2)c2cc(Nc3ccc4cc(C#N)cc(C(F)(F)F)c4n3)ncc21 [Example 26, Methyl ((1R,3R)-3-(6-((6-cyano-8-(trifluoromethyl)quinolin-2-yl)amino)-3-(methyl-d3)-2-oxo-2,3-dihydro-1H-imidazo[4,5-c]pyridin-1-yl)cyclopentyl)carbamate] | > 1 | ≤ 0.01 | ≤ 0.01 | > 1
